Results: patent US6635668B1, “Imidazoline receptor binding compounds” (The University of North Carolina at Chapel Hill, priority 1998, dated 2003)
Entries after “also recorded” stand apart in the source; their conditions may differ. Counter-ions that a name gives are not always drawn.

Experiments:
imidazoline receptor = assay: Imidazoline receptor binding (Tables 2 and 3); settings: Table 2
imidazoline I2 sites [1] = assay: Competition binding of 5 nM [3H]idazoxan to rat liver membranes; settings: for Ki: 5 nM [3H]idazoxan (Kd 14 ± 2 nM), mean ± SD, compounds 4 and 8 mean ± 95% confidence intervals; for Hill Slope: inhibition of [3H]idazoxan binding
Method: Membrane preparation. Membranes were prepared in accordance with known techniques (R. Zonnenchein et al., Eur. J. Pharmacol. 190, 203-215 (1990)). […] The livers were weighed and minced with scissors before being homogenized at 4° C. in solution A (0.25 M sucrose containing 0.1 mM phenylmethyl sulfonyl fluoride 1:10 v/v) for 1 min using a Biospec homogenizer (Bartlesville, Okla., USA). The homogenate was centrifuged at 600×g for 10 min at 4° C. The resulting pellet was washed with solution A, discarded and the supernatant fractions were combined and centrifuged at 12,000×g for 30 min. This pellet was washed then resuspended in cold buffer B (50 mM Tris/HCl pH 7.4). Using a Bio-Rad (Hercules, Calif., USA) assay kit, the protein concentration was determined using bovine serum albumin as the standard according to the assay of Bradford et al. (Bradford, M. M., 1976. Anal. Biochem. 72, 248-254.). The preparation was stored at −80° C. at a concentration of 20 mg protein/ml. Competition binding studies. Competition experiments were performed in 1 ml buffer B containing 5 nM [^3H]idazoxan. […] In all experiments, bound and free radioligand were separated by vacuum filtration through Whatman GF/C filters and washed with 2×10 ml cold buffer B. Radioactivity on filters was determined by liquid scintillation spectroscopy using a Packard Tri-Carb 2100TR. […] Data analysis. Binding analyses, statistics and graphics were performed using Prism 2.01 (Graphpad Software, Inc., San Diego, Calif., USA). […] The calculated log of the octanol:water partition coefficient (ClogP) was calculated using MedChem Software 3.5 (Daylight Chemical Information Systems, New Orleans, La., USA).

Pneumocystis carinii = assay: Anti-Pneumocystis carinii activity, P. carinii pneumonia in the rat; format: in vivo; settings: for anti-P. carinii activity (in words): rat, compared with pentamidine
Method: Anti-Pneumocystis carinii activity. Induction, treatment and evaluation of P. carinii pneumonia in the rat was carried out according to methods described previously (Jones, S. K. et al., Antimicrob. Agents Chemother. 34, 1026-1030 (1990)). To summarize the scoring procedure, the mean histologic scores were determined by two examiners using a blinded protocol. P. carinii cysts were counted in the stained lung sections and assigned the following values; 0.5—less than 10 cysts counted per two fully examined sections; 1—scattered cysts with less than 10% of the lung tissue involved; 2—scattered cysts with limited intense focal involvement and 10 to 25% of lung tissue involved; 3—scattered cysts with numerous intense areas of focal involvement and 26 to 50% of lung tissue involved; 4—cysts found throughout the tissue with numerous intense focal areas of involvement having greater than 50% of lung tissue involved.

imidazoline I2 sites [2] = assay: [3H]Idazoxan saturation binding in rat liver membranes; settings: 22° C., 45 min, read-out: Kd for saturable binding
Method: Membrane preparation. Membranes were prepared in accordance with known techniques (R. Zonnenchein et al., Eur. J. Pharmacol. 190, 203-215 (1990)). Briefly, male Sprague-Dawley rats (Hilltop, Scottsdale, Pa., USA) weighing approximately 250-300 g were decapitated, their livers rapidly removed and immediately placed into 0.25 M cold sucrose solution. The livers were weighed and minced with scissors before being homogenized at 4° C. in solution A (0.25 M sucrose containing 0.1 mM phenylmethyl sulfonyl fluoride 1:10 v/v) for 1 min using a Biospec homogenizer (Bartlesville, Okla., USA). The homogenate was centrifuged at 600×g for 10 min at 4° C. The resulting pellet was washed with solution A, discarded and the supernatant fractions were combined and centrifuged at 12,000×g for 30 min. This pellet was washed then resuspended in cold buffer B (50 mM Tris/HCl pH 7.4). Using a Bio-Rad (Hercules, Calif., USA) assay kit, the protein concentration was determined using bovine serum albumin as the standard according to the assay of Bradford et al. (Bradford, M. M., 1976. Anal. Biochem. 72, 248-254.). The preparation was stored at −80° C. at a concentration of 20 mg protein/ml. Saturation binding studies. Binding studies were performed in triplicate in 1 ml buffer B containing [^3H]idazoxan (0.1-50 nM). […]

Compound | Ki (imidazoline receptor) | Ki (imidazoline I2 sites [1]) | Hill Slope (imidazoline I2 sites [1]) | other results
N=C(N)c1cccc(OCCCCCOc2cccc(C(=N)N)c2)c1 [001 KAO 011] | 158 nM |  |  | 
N=C(N)c1ccc2[nH]c3ccc(C(=N)N)cc3c2c1 [003 KAO 111] | 44700 nM |  |  | 
N=C(N)c1ccc2[nH]c(CCCCc3nc4cc(C(=N)N)ccc4[nH]3)nc2c1 [BABB] | 5530 nM |  |  | 
N=C(N)c1ccc2[nH]c(Cc3nc4cc(C(=N)N)ccc4[nH]3)nc2c1 [BABIM] | 7510 nM |  |  | 
c1cc2[nH]c(CCCCc3nc4cc(C5=NCCN5)ccc4[nH]3)nc2cc1C1=NCCN1 [BIBB] | 44800 nM |  |  | 
c1ccc(C2CC2)c(OCC2=NCCN2)c1 [Cirazoline, cirazoline, reference compound] |  | 3 ± 0.4 nM |  | 
N=C(N)c1ccc(OCCCCCOc2ccc(C(=N)N)cc2)cc1 [Compound 1, pentamidine, reference compound] |  | 1.4 ± 0.22 nM | −0.8 | mean histologic score (Pneumocystis carinii; rat lung sections, saline control 3.8 out of a possible 4.0): 1.3
N=C(N)c1ccc(OCCCCCCOc2ccc(C(=N)N)cc2)cc1 [Compound 2] |  | 3.2 ± 0.36 nM | −1.2 | anti-P. carinii activity (in words) (Pneumocystis carinii): greater than pentamidine
c1cc(C2=NCCN2)ccc1OCCCCCOc1ccc(C2=NCCN2)cc1 [Compound 3] |  | 4.3 ± 1.09 nM | −0.8 | anti-P. carinii activity (in words) (Pneumocystis carinii): greater than pentamidine
N=C(N)c1ccc(OCCCCOc2ccc(C(=N)N)cc2)cc1 [Compound 4] |  |  | −0.8 | anti-P. carinii activity (in words) (Pneumocystis carinii): greater than pentamidine
COc1cc(C2=NCCN2)ccc1OCCCOc1ccc(C2=NCCN2)cc1OC [Compound 5] |  | 50.1 ± 1.06 nM | −0.9 | anti-P. carinii activity (in words) (Pneumocystis carinii): greater than pentamidine; also recorded: equally effective
COc1cc(C(=N)N)ccc1OCCCOc1ccc(C(=N)N)cc1OC [Compound 6] |  | ~3500 nM | −0.9 | anti-P. carinii activity (in words) (Pneumocystis carinii): greater than pentamidine; also recorded: equally effective
N=C(N)c1ccc(OCCCOc2ccc(C(=N)N)cc2)cc1 [Compound 7] |  |  | −0.8 | 
N=C(N)c1ccc(OCCCCCOc2ccc([N+](=O)[O-])cc2)cc1 [Compound 8] |  | 62 ± 25 nM | −0.8 | 
N=C(N)c1ccc(OCCCCCO)cc1 [Compound 9] |  | 319 ± 39.5 nM | −0.8 | anti-P. carinii activity (in words) (Pneumocystis carinii): no activity at all
COc1ccc(C(=N)N)cc1 [Compound 10, 4-methoxybenzamidine] |  | 228 ± 36.5 nM | −0.8 | 
N=C(N)c1ccc(O)cc1 [Compound 11, 4-hydroxybenzamidine] |  | ~30000 nM | −0.3 | anti-P. carinii activity (in words) (Pneumocystis carinii): no activity at all
N=C(N)c1ccccc1 [Compound 12, benzamidine] |  | 580 ± 61.3 nM | −0.8 | 
N=C(N)c1ccc2c(c1)[nH]c1cc(C(=N)N)ccc12 [DAP 092] | 18100 nM |  |  | 
c1cc(-c2ccc(-c3ccc(C4=NCCN4)cc3)o2)ccc1C1=NCCN1 [DB 60] | 630 nM |  |  | 
N=C(N)c1ccc(-c2ccc(-c3ccc(C(=N)N)cc3)o2)cc1 [DB 75] | 653 nM |  |  | 
c1cc(-c2ccc(-c3ccc(C4=NCCCN4)cc3)o2)ccc1C1=NCCCN1 [DB 103] | 236 nM |  |  | 
CC(C)NC(=N)c1ccc(-c2ccc(-c3ccc(C(=N)NC(C)C)cc3)o2)cc1 [DB 181] | 5500 nM |  |  | 
N=C(N)c1ccc2[nH]c(-c3ccc4[nH]c(-c5ccc(O)cc5)nc4c3)nc2c1 [DB 183] | 65600 nM |  |  | 
N=C(N)c1ccc2nc(C3=CCC=C(c4nc5ccc(C(=N)N)cc5[nH]4)N3)[nH]c2c1 [DB 205] | 347000 nM |  |  | 
N=C(NC1CCCC1)c1ccc(-c2ccc(-c3ccc(C(=N)NC4CCCC4)cc3)o2)cc1 [DB 244] | 6760 nM |  |  | 
N=C(N)c1ccc(-c2ccc(-c3ccc(C(=N)N)cc3)[nH]2)cc1 [DB 262] | 3780 nM |  |  | 
N=C(N)c1ccc(-c2ccc(-c3ccc(C(=N)N)cc3)s2)cc1 [DB 351] | 111 nM |  |  | 
Cc1ccc(N(CC2=NCCN2)c2cccc(O)c2)cc1 [Phentolamine, phentolamine, reference compound] |  | > 5000 nM |  | 
[3H]c1cc2c(cc1[3H])OC(C1=NCCN1)CO2 (stereo not drawn) [[^3H]idazoxan, (1,4-[6,7-^3H]-benzodioxan-2-yl)-2-imidazoline hydrochloride] |  |  |  | Kd (imidazoline I2 sites [2]): 14 ± 2 nM
